Test results published in ChEMBL document CHEMBL1151905, “Discovery of 5-substituted 2-amino-4-chloro-8-((4-methoxy-3,5-dimethylpyridin-2-yl)methyl)-7,8-dihydropteridin-6(5H)-ones as potent and selective Hsp90 inhibitors” (Bioorg Med Chem Lett, 2009).
Converted amounts (≈) assume the structure as drawn.

Experiments:
[1] = Inhibition of HSP90 by fluorescence polarization assay
Heat shock protein HSP90 = Heat shock protein HSP90 (Homo sapiens, UniProt P07900+P08238); assay: Inhibition of HSP90 in human SKBR3 cells assessed as induction of Her2 degradation; format: cell-based; details: sk-br-3
MCF7 [2] = assay: Growth inhibition of human MCF7 cells; format: functional, cell-based
HT-29 [3] = assay: Growth inhibition of human HT-29 cells; format: functional, cell-based
SK-BR-3 = assay: Growth inhibition of human SKBR3 cells; format: functional, cell-based
BT-474 = assay: Growth inhibition of human BT474 cells; format: functional, cell-based
HMEC [4] = assay: Growth inhibition of HMEC cells; format: cell-based; details: Homo sapiens
HMEC [5] = assay: Selectivity index, ratio of IC50 for HMEC cells to IC50 for human SKBR3 cells; format: functional
HMEC [6] = assay: Selectivity index, ratio of IC50 for HMEC cells to IC50 for human BT474 cells; format: functional
MCF7 [7] = assay: Selectivity index, ratio of IC50 for HMEC cells to IC50 for human MCF7 cells; format: functional
HT-29 [8] = assay: Selectivity index, ratio of IC50 for HMEC cells to IC50 for human HT-29 cells; format: functional
[9] = Aqueous solubility at pH 3; format: physicochemical
[10] = Metabolic stability in human liver microsomes; format: ADME, Microsome
[11] = Metabolic stability in rat liver microsomes; format: ADME, Microsome
[12] = Metabolic stability in mouse liver microsomes; format: ADME, Microsome
[13] = Oral bioavailability in rat; format: ADME, organism-based; details: in vivo

| SMILES | IC50 [1] [nM] | IC50 (Heat shock protein HSP90) [nM] | IC50 (MCF7 [2]) [nM] | IC50 (HT-29 [3]) [nM] | IC50 (SK-BR-3) [nM] | IC50 (BT-474) [nM] | other results |
| --- | --- | --- | --- | --- | --- | --- | --- |
| COc1c(C)cnc(CN2c3nc(N)nc(Cl)c3NC(=O)[C@H]2C)c1C | 400 | 350 | 790 | 470 | 220 | 410 | – |
| COc1c(C)cnc(CN2CC(=O)N(CCN3CCCC3)c3c(Cl)nc(N)nc32)c1C | 660 | 510 | 1320 | 1080 | 300 | 520 | – |
| COc1c(C)cnc(CN2CC(=O)N(C3CCCC3)c3c(Cl)nc(N)nc32)c1C | – | 110 | 820 | 330 | 120 | 290 | – |
| COc1c(C)cnc(CN2CC(=O)N(C(C)C)c3c(Cl)nc(N)nc32)c1C | 70 | 50 | 50 | 60 | 20 | 30 | IC50 (HMEC [4]): 320 nM |
| COc1nc(N)nc2c1N(CC(C)C)C(=O)CN2Cc1ncc(C)c(OC)c1C | – | 1070 | – | – | – | – | – |
| COc1c(C)cnc(CN2c3nc(N)nc(Cl)c3N(CC(C)C)C(=O)[C@@H]2C)c1C | – | > 5000 | – | – | – | – | – |
| COc1c(C)cnc(CN2CCNc3c(Cl)nc(N)nc32)c1C | > 5000 | > 5000 | – | – | – | – | – |
| COc1c(C)cnc(CN2CC(=O)N(C(=O)NCCN3CCOCC3)c3c(Cl)nc(N)nc32)c1C | – | > 10000 | 2140 | 1200 | > 5000 | > 100000 | – |
| COc1ccnc(CN2CC(=O)N(CC(C)C)c3c(Cl)nc(N)nc32)c1OC | – | 160 | 100 | 40 | 10 | 30 | IC50 (HMEC [4]): 240 nM; Ratio IC50 (HMEC [5]): 6; Ratio IC50 (HMEC [6]): 6; Ratio IC50 (MCF7 [7]): 2; Ratio IC50 (HT-29 [8]): 6 |
| COc1c(C)cnc(CN2CC(=O)N(CC(C)C)c3c(Cl)nc(N)nc32)c1C | 50 | 40 | 70 | 40 | 10 | 20 | IC50 (HMEC [4]): 130 nM; Ratio IC50 (HMEC [5]): 13; Ratio IC50 (HMEC [6]): 6; Ratio IC50 (MCF7 [7]): 2; Ratio IC50 (HT-29 [8]): 3 |
| COc1c(C)cnc(CN2c3nc(N)nc(Cl)c3N(CC(C)C)C(=O)[C@@H]2C(C)C)c1C | – | > 5000 | – | – | – | – | – |
| COc1c(C)cnc(Cn2c(=O)c(=O)[nH]c3c(Cl)nc(N)nc32)c1C | – | > 5000 | – | – | – | – | – |
| Cc1cnc(CN2CC(=O)N(CC(C)C)c3c(Cl)nc(N)nc32)c(C)c1Cl | – | 590 | 470 | 280 | 110 | 240 | – |
| COc1c(C)cnc(CN2CC(=O)N(CC(C)C)c3c(C)nc(N)nc32)c1C | – | 980 | – | – | – | – | – |
| COc1c(C)cnc(CN2CC(=O)N(CCCN3CCOCC3)c3c(Cl)nc(N)nc32)c1C | – | 1550 | 2590 | 2950 | 1110 | 1810 | – |
| COc1c(C)cnc(CN2c3nc(N)nc(Cl)c3NC(=O)[C@@H]2CC(C)C)c1C | – | 370 | 930 | 690 | 230 | 490 | – |
| COc1nc(CN2CC(=O)N(CC(C)C)c3c(Cl)nc(N)nc32)c(Cl)c(OC)c1OC | – | > 5000 | – | – | – | – | – |
| COc1c(C)cnc(CN2CC(=O)Nc3c(Cl)nc(N)nc32)c1C | 880 | 570 | 1490 | 1180 | 390 | 650 | solubility [9]: 381 µM (≈ 133 µg/mL); half-life [10]: > 1 h; half-life [11]: > 1 h; half-life [12]: > 1 h; bioavailability [13]: 60% |
| COc1c(C)cnc(CN2CC(OC3CCCC3)=Nc3c(Cl)nc(N)nc32)c1C | – | 10 | 40 | 20 | 5 | 10 | – |
| COc1c(C)cnc(CN2CC(=O)N(C)c3c(Cl)nc(N)nc32)c1C | 960 | 930 | 2190 | 1470 | 460 | 950 | – |
| COc1c(C)cnc(CN2CC(=O)N(C(C)C(=O)NCCN(C)C)c3c(Cl)nc(N)nc32)c1C (stereo not drawn) | – | 100 | 120 | 100 | 30 | 60 | – |
| COc1c(C)cnc(CN2c3nc(N)nc(Cl)c3NC(=O)[C@@H]2C(C)C)c1C | 2140 | 650 | 1600 | 1060 | 430 | 760 | – |
| Cc1cnc(CN2CC(=O)N(CC(C)C)c3c(Cl)nc(N)nc32)c(C)c1Br | 60 | 100 | 280 | 140 | 60 | 130 | IC50 (HMEC [4]): 180 nM |
| COc1c(C)cnc(CN2c3nc(N)nc(Cl)c3NC(=O)[C@@H]2CCO)c1C | 640 | 280 | – | – | – | – | – |
| COc1c(C)cnc(CN2c3nc(N)nc(Cl)c3NC(=O)[C@@H]2C)c1C | – | 430 | 940 | 660 | 250 | 470 | – |
| COc1c(C)cnc(CN2CC(=O)N(CCCC(C)C)c3c(Cl)nc(N)nc32)c1C | 900 | 1910 | 3110 | 2260 | 970 | 1650 | – |
| COc1c(C)cnc(CN2c3nc(N)nc(Cl)c3N(C(C)C)C(=O)[C@@H]2C(C)C)c1C | 80 | 60 | 40 | 90 | 5 | 20 | – |
| COc1c(C)cnc(Cn2c(=O)cnc3c(Cl)nc(N)nc32)c1C | – | > 10000 | – | – | – | – | – |
